According to PMC8591808 (Molecular Brain, 2021):

Target: T1, Cav3.2 T-type calcium channel (Homo sapiens, UniProt O95180)
T1 construct: gene CACNA1H
Assay: whole-cell patch clamp, tsA-201 cells transiently expressing Cav3.[…]; partial block (plateau about […])
Assay type: cell-based

T1 sequence (O95180 whole entry): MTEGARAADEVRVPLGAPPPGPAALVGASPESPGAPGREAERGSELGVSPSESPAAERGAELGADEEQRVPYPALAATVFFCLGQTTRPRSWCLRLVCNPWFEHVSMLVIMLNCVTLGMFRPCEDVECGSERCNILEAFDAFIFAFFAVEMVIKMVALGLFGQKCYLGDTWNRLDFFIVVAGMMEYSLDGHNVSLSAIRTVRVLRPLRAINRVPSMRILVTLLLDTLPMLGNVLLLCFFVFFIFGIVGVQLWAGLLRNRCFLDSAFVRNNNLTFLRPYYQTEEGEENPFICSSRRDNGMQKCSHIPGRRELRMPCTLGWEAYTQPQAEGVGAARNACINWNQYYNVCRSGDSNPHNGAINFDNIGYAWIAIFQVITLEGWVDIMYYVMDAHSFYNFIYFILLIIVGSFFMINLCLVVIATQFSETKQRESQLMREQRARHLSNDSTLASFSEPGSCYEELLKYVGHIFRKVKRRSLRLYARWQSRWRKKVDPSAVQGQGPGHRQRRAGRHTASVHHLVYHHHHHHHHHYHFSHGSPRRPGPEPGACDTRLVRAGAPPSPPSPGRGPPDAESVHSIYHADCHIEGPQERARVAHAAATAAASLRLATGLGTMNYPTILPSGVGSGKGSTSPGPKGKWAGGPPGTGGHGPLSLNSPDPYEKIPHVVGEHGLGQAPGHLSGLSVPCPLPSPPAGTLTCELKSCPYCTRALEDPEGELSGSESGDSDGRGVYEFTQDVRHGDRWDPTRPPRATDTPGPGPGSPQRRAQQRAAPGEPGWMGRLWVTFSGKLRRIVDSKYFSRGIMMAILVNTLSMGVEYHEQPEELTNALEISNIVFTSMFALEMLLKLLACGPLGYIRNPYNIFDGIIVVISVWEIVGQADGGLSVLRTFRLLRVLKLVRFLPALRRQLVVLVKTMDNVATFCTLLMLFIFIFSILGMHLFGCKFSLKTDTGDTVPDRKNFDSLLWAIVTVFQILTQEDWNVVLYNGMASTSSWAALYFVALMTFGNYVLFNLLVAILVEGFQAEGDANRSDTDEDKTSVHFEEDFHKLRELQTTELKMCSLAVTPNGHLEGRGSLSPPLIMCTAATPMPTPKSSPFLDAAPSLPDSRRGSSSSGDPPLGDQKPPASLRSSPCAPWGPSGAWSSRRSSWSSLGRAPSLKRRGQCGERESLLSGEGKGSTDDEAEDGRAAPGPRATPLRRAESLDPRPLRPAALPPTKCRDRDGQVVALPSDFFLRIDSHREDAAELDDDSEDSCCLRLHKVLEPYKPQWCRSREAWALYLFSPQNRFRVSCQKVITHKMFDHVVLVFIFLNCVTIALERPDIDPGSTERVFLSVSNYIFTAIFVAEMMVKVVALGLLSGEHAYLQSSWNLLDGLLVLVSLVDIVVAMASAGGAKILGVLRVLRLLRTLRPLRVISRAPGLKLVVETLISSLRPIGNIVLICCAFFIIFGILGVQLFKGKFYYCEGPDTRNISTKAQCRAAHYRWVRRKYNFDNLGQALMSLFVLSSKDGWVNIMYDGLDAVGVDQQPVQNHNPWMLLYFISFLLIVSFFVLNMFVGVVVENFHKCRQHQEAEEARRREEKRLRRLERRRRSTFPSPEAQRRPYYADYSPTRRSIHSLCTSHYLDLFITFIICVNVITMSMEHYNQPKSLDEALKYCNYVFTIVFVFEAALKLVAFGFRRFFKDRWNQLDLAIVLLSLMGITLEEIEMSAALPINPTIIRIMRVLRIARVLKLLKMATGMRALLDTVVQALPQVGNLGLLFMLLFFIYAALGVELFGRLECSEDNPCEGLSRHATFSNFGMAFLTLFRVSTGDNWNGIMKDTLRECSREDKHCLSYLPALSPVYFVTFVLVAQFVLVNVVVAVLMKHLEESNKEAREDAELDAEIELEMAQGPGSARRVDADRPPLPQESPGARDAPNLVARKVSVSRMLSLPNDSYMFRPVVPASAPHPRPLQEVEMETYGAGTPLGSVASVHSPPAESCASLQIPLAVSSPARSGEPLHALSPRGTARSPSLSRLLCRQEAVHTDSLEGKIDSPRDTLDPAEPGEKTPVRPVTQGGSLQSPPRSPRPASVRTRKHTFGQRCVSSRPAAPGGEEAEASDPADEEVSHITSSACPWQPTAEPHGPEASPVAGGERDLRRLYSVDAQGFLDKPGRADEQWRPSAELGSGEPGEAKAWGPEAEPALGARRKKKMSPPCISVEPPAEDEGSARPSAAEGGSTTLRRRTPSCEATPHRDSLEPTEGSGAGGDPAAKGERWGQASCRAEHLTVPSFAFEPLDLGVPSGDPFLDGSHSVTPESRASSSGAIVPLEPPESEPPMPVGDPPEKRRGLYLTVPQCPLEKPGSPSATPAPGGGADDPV

Compound	IC50
C=C1C2CCC(C2)C1(C)C (centres unmarked) [camphene]	7.7 ± 1.8 µM
CC(C)=CCC[C@](C)(O)[C@@H]1CC=C(C)CC1 [alpha-bisabolol]	4.5 ± 1.1 µM
